Measurements: patent publication US4837228A, “Antiinflammatory and antimicrobial compounds and compositions” (The University of Mississippi, priority 1982, dated 1989)
In brackets after ≈: the same amount, converted by molar mass. Several values for one entry are separate records, joined by “and”; a condition that tells them apart may be missing. Equal entries are not always repeated. Where two headings read alike, the source gives them in different places.

What was measured:
Mycobacterium smegmatis [1] = assay: MIC, two-fold (broth) serial dilution, M. smegmatis; type: cell-based
Procedure: (§1) Both qualitative and quantitative screens were performed. Qualitative screening was accomplished using the agar well diffusion assay technque while quantitative screening was accomplished by the two-fold (broth) serial dilution method to determine the minimum inhibitory concentration (MIC). Innoculation was accomplished with one loop-full of a 1:10 dilution of the 24-hour-old broth culture, (fungal cultures and M.smegmatis more often required 48 to 72 hours of incubation) of the test organisms in sterile water. Streptomycin sulfate was used as a positive control for antibacterial activity while amphitericin B was used as an antifungal positive control. Organisms utilized in the screens included gram-positive, gram-negative, and acid-fast bacteria as well as different types of fungi. […] An intermediate type activity is seen where R is hydrogen. However, where R is lengthened up to C15 a decrease in activity was noted. Total saturation of the two double bonds in the compounds having a methyl side chain lead, in most cases, to an increase in both antifungal and antibacterial activity.

Candida albicans [2] = assay: MIC, two-fold (broth) serial dilution, C. albicans; type: cell-based
Procedure: as §1

Saccharomyces cerevisiae [3] = assay: MIC, two-fold (broth) serial dilution, S. cerevisiae; type: cell-based
Procedure: as §1

[4] = test system: Trichophyton mentagrophytes; assay: MIC, two-fold (broth) serial dilution, T. mentagrophytes; type: cell-based
Procedure: as §1

[5] = test system: erythrocyte (heat-induced hemolysis); assay: erythrocyte membrane stabilization assay (heat-induced erythrocyte hemolysis); type: cell-based; conditions: Erythrocyte, read-out: inhibition of heat-induced erythrocyte hemolysis, Table 8; 1 × 10^-4 M
Procedure: The published procedure (Proc. Soc. Exp. Biol. Med. 1967; 125; 837-842 Brow et al) for in vitro assay for antiinflammatory agents based on stabilization of erythrocytes was used. All compounds were prepared for administration by dissolving in physiologic saline or suspending in 2% ethanol in saline and the pH adjusted to 7.4 The concentrations tested in one series are given in Table 8. Aspirin (ASA) and phenylbutazone were used as positive controls for comparison of activity. Tests using this procedure were successfully and repeatedly using either 40% or 20% RBC suspensions.

Bacillus subtilis [6] = assay: MIC, two-fold (broth) serial dilution, B. subtilis; type: cell-based
Procedure: as §1

[7] = test system: carrageenan-induced rat paw edema; assay: carrageenan-induced rat paw edema test, intraperitoneal dosing; type: in vivo; conditions: Table 5, * P = 0.01
Procedure: Two methods were used to assess the antiinflammatory activity of the compounds of the invention: the carrageenan-induced rat paw edema test and, the erythrocyte membrane stabilization assay.
In the Rat Paw Edema Test, the rats utilized were divided into test groups of six to eight animals, weighed and marked so that individual rats could be identified; one hour before testing all rats were given a 700 mg/kg intraperitoneal injection of ethyl urethane in distilled water to render them tractable during testing. A circle was drawn, with a felt-tipped marker, around the hind leg of each rat just above the ankle, and each rat was dosed with a test or control compound by intraperitoneal injection. Negative control groups received the vehicle; while positive control groups received a dose of phenylbutazone (PBZ) as shown in Table II. Test compounds were given at doses of 60, 120, 240 and 480 mg/kg. The positive controls were given at 120 mg/kg and 60 mg/kg. Phenylbutazone was prepared for injection by suspending it in normal saline using Tween 60. The rats were then held in group cages for 30 minutes. The volume of the left hind paw was measured using a mercury displacement pleysmograph. The paw is dipped into the mercury until the mercury touches the line above the ankle. Mercury is then withdrawn until the mercury returns to its original level. The amount of mercury removed is measured in milliliters (ml). The mercury can be measured accurately to 0.01 ml. This left hind paw was then injected with 0.1 ml of a 5% w/v solution of viscous carageenan in normal saline. The injection was given between the metatarsal bones using a 27 gauge needle, and the rats then held in group cages for 3 hours. The volume of the left hind paws was measured again in the pleysmograph. The results were computed in the following manner:
a. A mean is taken for both the pre-injection and post-injection paw volume of each test group.
b. The mean difference in volume (MDV) for each test group is computed by subtracting the pre-injection means from the post-injection mean.
c. The percent of control is computed for each test [formula] The percent of control is used to compare the efficacy of the various drug treatments.
d. The percent increase in paw volume is calculated for each group as: [formula] The percent increase is used to compare the amount of edma observed in one experiment to the amount of edma observed in other experiments.
The data from the rat paw test were further analyzed using a one-way analysis of varience (ANOVA) and Duncan's New Multiple Range Test. The pre-injection score of each animal was subtracted from his post-injection score and an analysis of the different scores were conducted.
The procedure described above was followed. […] The vehicle control used was Tween 60, Arlacel and distilled water prepared without CBC(II).

Staphylococcus aureus [8] = assay: MIC, two-fold (broth) serial dilution, S. aureus; type: cell-based; conditions: 48 hr
Procedure: as §1

Bacillus subtilis [9] = assay: agar well diffusion assay, B. subtilis; type: cell-based; conditions: from edge of agar well
Procedure: as §1

Staphylococcus aureus [10] = assay: agar well diffusion assay, S. aureus; type: cell-based; conditions: from edge of agar well
Procedure: as §1

Mycobacterium smegmatis [11] = assay: agar well diffusion assay, M. smegmatis; type: cell-based; conditions: from edge of agar well
Procedure: as §1

Escherichia coli = assay: agar well diffusion assay, E. coli; type: cell-based; conditions: from edge of agar well
Procedure: as §1

Pseudomonas aeruginosa = assay: agar well diffusion assay, Ps. aeruginosa; type: cell-based; conditions: from edge of agar well
Procedure: as §1

Candida albicans [12] = assay: agar well diffusion assay, C. albicans; type: cell-based; conditions: from edge of agar well
Procedure: as §1

Saccharomyces cerevisiae [13] = assay: agar well diffusion assay, S. cerevisiae; type: cell-based; conditions: from edge of agar well
Procedure: as §1

[14] = test system: Trichophyton mentagrophytes; assay: agar well diffusion assay, T. mentagrophytes; type: cell-based; conditions: for agar well diffusion result in words: one entry across 48 hr and 72 hr; for width of inhibition zone: from edge of agar well
Procedure: as §1

Aspergillus niger = assay: agar well diffusion assay, A. niger; type: cell-based; conditions: from edge of agar well
Procedure: as §1

2-methyl-2(4'-methyl-pent-3'-enyl)-5-hydroxy-7-pent-dec-8'-enyl chromene [CBC (VIII)]
MIC (Mycobacterium smegmatis [1]; 24 hr): 12.5 µg/mL and 25 µg/mL
MIC (Candida albicans [2]; 48 hr): 50 µg/mL
MIC (Candida albicans [2]; 72 hr): 100 µg/mL
MIC (Saccharomyces cerevisiae [3]; 48 hr): 100 µg/mL
MIC (Saccharomyces cerevisiae [3]; 72 hr): 100 µg/mL
MIC ([4]; 48 hr): 25 µg/mL
MIC ([4]; 72 hr): 50 µg/mL

CCCCCc1cc(O)cc2c1C=CC(C)(CCC=C(C)C)O2 (stereo not drawn) [Iso CBC (IX), 2-methyl-2(4'-methyl-pent-3'-enyl)-5-pentyl-7-hydroxy chromene]
inhibition at 100 µM [5]: 75%
MIC (Bacillus subtilis [6]; Bacillus subtilis, 24 h, read-out: MIC): 0.78 µg/mL (≈ 2.48 µM)
MIC (Bacillus subtilis [6]; Bacillus subtilis, 48 h, read-out: MIC): 3.12 µg/mL (≈ 9.92 µM)
MIC (Mycobacterium smegmatis [1]; Mycolicibacterium smegmatis, 24 h, read-out: MIC): 25 µg/mL (≈ 79.5 µM)
MIC (Mycobacterium smegmatis [1]; Mycolicibacterium smegmatis, 48 h, read-out: MIC): 25 µg/mL (≈ 79.5 µM)
MIC (Candida albicans [2]; Candida albicans, 48 h, read-out: MIC): 50 µg/mL (≈ 159 µM)
MIC (Candida albicans [2]; Candida albicans, 72 h, read-out: MIC): 100 µg/mL (≈ 318 µM)

2-methyl-2(4'-methyl-pentyl)-5-hydroxy-7-methyl chroman [CBC (V)]
inhibition of carrageenan-induced rat paw edema ([7]; 60 mg/kg i.p.): 53%
inhibition of carrageenan-induced rat paw edema ([7]; 120 mg/kg i.p.): 63%
inhibition of carrageenan-induced rat paw edema ([7]; 240 mg/kg i.p.): 92%
MIC (Bacillus subtilis [6]; 24 hr): 3.12 µg/mL and 1.56 µg/mL
MIC (Bacillus subtilis [6]; 48 hr): 3.12 µg/mL and 1.56 µg/mL
MIC (Staphylococcus aureus [8]): 3.12 µg/mL
MIC (Mycobacterium smegmatis [1]; 24 hr): 3.12 µg/mL
MIC (Saccharomyces cerevisiae [3]; 48 hr): 6.25 µg/mL and 12.5 µg/mL
MIC (Saccharomyces cerevisiae [3]; 72 hr): 12.5 µg/mL
width of inhibition zone (Bacillus subtilis [9]; 24 hr): 16.0 mm
width of inhibition zone (Bacillus subtilis [9]; 48 hr): 9.0 mm
width of inhibition zone (Staphylococcus aureus [10]; 24 hr): 25. mm
width of inhibition zone (Staphylococcus aureus [10]; 48 hr): 25. mm
width of inhibition zone (Mycobacterium smegmatis [11]; 24 hr): 25. mm
width of inhibition zone (Mycobacterium smegmatis [11]; 48 hr): 25. mm
width of inhibition zone (Escherichia coli; 24 hr): 5. mm
width of inhibition zone (Escherichia coli; 48 hr): 5. mm
width of inhibition zone (Pseudomonas aeruginosa; 24 hr): 4. mm
width of inhibition zone (Pseudomonas aeruginosa; 48 hr): 3. mm
width of inhibition zone (Candida albicans [12]; 48 hr): 3.0 mm
width of inhibition zone (Candida albicans [12]; 72 hr): 3.0 mm
width of inhibition zone (Saccharomyces cerevisiae [13]; 48 hr): 22. mm
width of inhibition zone (Saccharomyces cerevisiae [13]; 72 hr): 22. mm
agar well diffusion result in words [14]: No growth
width of inhibition zone (Aspergillus niger; 48 hr): 3. mm
width of inhibition zone (Aspergillus niger; 72 hr): 3. mm

C[C@@H]1[C@H](O)[C@@H](C)/C=C/C=C/C=C/C=C/C=C/C=C/C=C/[C@H](O[C@@H]2O[C@H](C)[C@@H](O)[C@H](N)[C@@H]2O)C[C@@H]2O[C@](O)(C[C@@H](O)C[C@@H](O)[C@H](O)CC[C@@H](O)C[C@@H](O)CC(=O)O[C@H]1C)C[C@H](O)[C@H]2C(=O)O [Amphotericin B, reference compound]
MIC (Candida albicans [2]; 72 hr): 25 µg/mL (≈ 27.1 µM)
MIC ([4]; 48 hr): 25.0 µg/mL (≈ 27.1 µM)
MIC ([4]; 72 hr): 25.0 µg/mL and 50 µg/mL
MIC ([4]; Trichophyton mentagrophytes, 72 h, read-out: MIC): 25 µg/mL (≈ 27.1 µM)
width of inhibition zone (Candida albicans [12]; 48 hr): 7. mm and 5. mm
width of inhibition zone (Saccharomyces cerevisiae [13]; 48 hr): 7. mm
width of inhibition zone (Saccharomyces cerevisiae [13]; 72 hr): 8. mm and 5. mm
width of inhibition zone ([14]; 48 hr): 4. mm
width of inhibition zone ([14]; 72 hr): 4. mm
agar well diffusion result in words [14]: No growth
width of inhibition zone (Aspergillus niger; 48 hr): 4. mm and 2. mm
